The source of these data is US20160333419A1, “GENE SIGNATURES ASSOCIATED WITH SENSITIVITY TO MDM2 INHIBITORS” (DAIICHI SANKYO COMPANY, LIMITED, priority 2014, published 2016).

The test system of one test is A549. The test is described as follows: OncoPanel cytotoxicity assay. In kind it is cell-based. The following applies: Homo sapiens, 72 hour incubation. Put shortly: (§1)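 Cells grown in RPMI 1640 with 10% FBS (or a special medium) at 37° C, 5% CO2 were treated 24 hours after seeding for 72 hours with 10 concentrations (3.16-fold dilutions, 0.1% DMSO final). Nuclei were dye-stained and imaged; IC50 was fit from percent of control relative cell count.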

In another test the test system is BT-483. Description: OncoPanel cytotoxicity assay. In kind it is cell-based. The following applies: Homo sapiens, 72 hour incubation. In a few lines:
as §1

Another test deals with CAL-54. Description: OncoPanel cytotoxicity assay. The following applies: Homo sapiens, 72 hour incubation. In kind it is cell-based. Put shortly: as §1
Another test concerns CRO-AP5. Description: OncoPanel cytotoxicity assay. In kind it is cell-based. The following applies: Homo sapiens, 72 hour incubation. Put shortly: as §1
In the next test the test system is IMR-32. Description: OncoPanel cytotoxicity assay. In kind it is cell-based. The following applies: Homo sapiens, 72 hour incubation. Put shortly: as §1
The subject of another test is Jurkat. The test is described as follows: OncoPanel cytotoxicity assay. In kind it is cell-based. The following applies: Homo sapiens, 72 hour incubation. Put shortly:
as §1

A further test concerns MDA-MB-175-VII. The test is described as follows: OncoPanel cytotoxicity assay. In kind it is cell-based. The following applies: Homo sapiens, 72 hour incubation. Put shortly: as §1
The test system of another test is NCIH441. The test is described as follows: OncoPanel cytotoxicity assay. In kind it is cell-based. The following applies: Homo sapiens, NCI-H441, 72 hour incubation. In a few lines:
as §1

The subject of another test is T84. Description: OncoPanel cytotoxicity assay. In kind it is cell-based. The following applies: Homo sapiens, 72 hour incubation. In a few lines:
as §1

For a further test, the system named is VCaP. Description: OncoPanel cytotoxicity assay. The following applies: Homo sapiens, 72 hour incubation. In kind it is cell-based. In a few lines:
as §1

In the next test the test system is WM-115. Description: OncoPanel cytotoxicity assay. The following applies: Homo sapiens, 72 hour incubation. In kind it is cell-based. Put shortly: as §1
The subject of another test is ZR-75-1. Description: OncoPanel cytotoxicity assay. In kind it is cell-based. The following applies: Homo sapiens, 72 hour incubation. In a few lines:
as §1

Test [1] has as its system multi-cancer cell line panel. The test is described as follows: OncoPanel cytotoxicity assay, whole panel summary. In kind it is cell-based, human. The protocol: This Example describes an evaluation of the effect of a representative small molecule MDM2i on the growth of cells in a multi-cancer cell line panel. In this Example, the MDM2 inhibitors used were Compound A and Compound B p-toluenensulfonate. The panel included 250 human cancer cell lines (OncoPanel™, Ricerca Biosciences, Painesville, Ohio) that were evaluated in a high content drug screening analysis. The relative IC50 values for the cell lines were determined.
Cells were grown in RPMI 1640, 10% FBS, 2 mM L-alanyl-L-Glutamine, 1 mM Na Pyruvate, or a special medium in a humidified atmosphere of 5% CO2 at 37° C. Cells were seeded into 384-well plates and incubated in a humidified atmosphere of 5% CO2 at 37° C. Test compounds were added 24 hours post cell seeding. At the same time, a time zero, untreated cell plate was generated as a control. After a 72 hour incubation period, cells were fixed and stained with nuclear dye to allow visualization of nuclei.
Compounds were serially diluted 3.16-fold and assayed over 10 concentrations of inhibitor in a final assay concentration of 0.1% DMSO from the highest test concentration specified in the sample information chapter. Automated fluorescence microscopy was carried out using a GE Healthcare InCell Analyzer 1000, and images were collected with a 4× objective. Twelve bit tiff images were acquired using the InCell Analyzer 1000 3.2 and analyzed with Developer Toolbox 1.6 software.
Cell proliferation was measured by the signal intensity of the incorporated nuclear dye. The cell proliferation assay output is referred to as the relative cell count. To determine the cell proliferation end point, the cell proliferation data output is transformed to percent of control (POC) using the following formula: […]
Relative cell count IC50 (IC50) is the test compound's concentration that produces 50% of the cell proliferation inhibitory response or 50% cytotoxicity level. IC50 values were calculated using nonlinear regression to fit data to a sigmoidal 4 point, 4 parameter One-Site dose response model, where: y (fit)=A+[(B−A)/(1+((C/x)̂D))]. […]

A further test concerns COR-L105. The test is described as follows: OncoPanel cytotoxicity assay. In kind it is cell-based. The following applies: Homo sapiens, 72 hour incubation. Put shortly: as §1
The next test relates to COR-L23. Description: OncoPanel cytotoxicity assay. In kind it is cell-based. The following applies: Homo sapiens, 72 hour incubation. Put shortly:
as §1

For another test, the system named is DMS273. The test is described as follows: OncoPanel cytotoxicity assay. In kind it is cell-based. The following applies: Homo sapiens, DMS-273, 72 hour incubation. Put shortly: as §1
The test system of another test is NCI-H69. Description: OncoPanel cytotoxicity assay. In kind it is cell-based. The following applies: Homo sapiens, 72 hour incubation. Put shortly:
as §1

In the next test the test system is OE19. Description: OncoPanel cytotoxicity assay. In kind it is cell-based. The following applies: Homo sapiens, 72 hour incubation. Put shortly:
as §1

Another test has as its system OE21. The test is described as follows: OncoPanel cytotoxicity assay. In kind it is cell-based. The following applies: Homo sapiens, 72 hour incubation. Put shortly: as §1
Another test concerns OE33. Description: OncoPanel cytotoxicity assay. In kind it is cell-based. The following applies: Homo sapiens, 72 hour incubation. Put shortly:
as §1

[2] abbreviates: share of the cell lines of the panel.

The term IC50 denotes the point on the concentration scale where inhibition reaches its midpoint.

The structures appear in SMILES notation. Bounds are passed on as bounds.

For `CC[C@@H]1CNC2(CC2)CN1C(=O)[C@@H]1C[C@@H](F)CN1C(=O)C1=C(C(C)C)N2C(=N[C@@](C)(c3ccc(Cl)nc3)[C@H]2c2ccc(Cl)c(F)c2)S1` [Compound A, [(5R,6S)-5-(4-Chloro-3-fluorophenyl)-6-(6-chloropyridin-3-yl)-6-methyl-3-(propan-2-yl)-5,6-dihydroimidazo[2,1-b][1,3]thiazol-2-yl][(2S,4R)-2-{[(6R)-6-ethyl-4,7-diazaspiro[2.5]oct-7-yl]carbonyl}-4-fluoropyrrolidin-1-yl]methanone], the IC50 in the test on A549 was 0.401 µM; in the test with BT-483 it was 13.2 µM; in the test with CAL-54, 0.602 µM; with CRO-AP5, 0.22 µM; with IMR-32, 0.828 µM; with Jurkat it was > 40 µM. In addition, the IC50 was > 40 µM in the test with MDA-MB-175-VII; > 40 µM in the test on NCIH441; > 40 µM with T84; > 40 µM with VCaP; 0.564 µM in the test with WM-115; 1.5 µM with ZR-75-1. The IC50 in test [1] (Homo sapiens, range over all cell lines of the panel, read-out: Cell line IC50 values ranged) is ≥ 0.12 µM. For the same compound, the “cell lines with IC50 values of <1 μM” value in test [1] (setting [2]) is reported as “Approximately 25%”. For the same compound, the “cell lines with IC50 values of >10 μM” value in [1] (setting [2]) is “approximately 70%”.

In the case of `CC1(C)CCC2(CC1)N[C@@H](C(=O)N[C@@H]1CC[C@@H](C(N)=O)OC1)[C@H](c1ccnc(Cl)c1F)[C@]21C(=O)Nc2cc(Cl)ccc21` [Compound B, (3′R,4′S,5′R)—N-[(3R,6S)-6-carbamoyltetrahydro-2H-pyran-3-yl]-6″-chloro-4′-(2-chloro-3-fluoropyridin-4-yl)-4,4-dimethyl-2″-oxo-1″,2″-dihydrodispiro[cyclohexane-1,2′-pyrrolidine-3′,3″-indole]-5′-carboxamide], the IC50 is 0.0769 µM in the test with A549; 0.168 µM with COR-L105; 8.98 µM in the test with COR-L23; 9.08 µM with DMS273; > 10 µM in the test on Jurkat; > 10 µM in the test on NCI-H69. Also, the IC50 in the test with NCIH441 is > 10 µM; with OE19, > 10 µM; in the test with OE21, 9.81 µM; in the test on OE33, 7.58 µM.
